Reference: patent US10722496B2, “2-iminobiotin for use in the treatment of brain cell injury” (Neurophyxia B.V., priority 2015, dated 2020)
Where “and” joins values, the source holds several entries; their conditions need not be identical. Equal values may be shown once.

Tests used:
IMR-32 cells = test: LDH cytotoxicity assay, hypoxia-induced cell damage; assay type: cell-based, human
Method: In vitro hypoxia was induced in the cell cultures by using our recently described system with minor modifications (Huang et al., 2013b; Weber et al., 2015; Zitta et al., 2010). Enzyme stock solutions (100×) of catalase and glucose oxidase (both from Sigma-Aldrich) were prepared in cell culture medium (DMEM/F12, 1% FCS; final concentration: 120 U/ml and 2 U/ml respectively; Sigma-Aldrich) leading to a decrease of partial pressure of oxygen (pO2) below 10 mmHg within 5 minutes. Hypoxic conditions were confirmed by using a tissue oxygen pressure monitor (LICOX® CMP Oxygen Catheter; Integra, Plainsboro, USA). After 7 hours of hypoxia, the cells were washed twice with PBS (PAA) and fresh normoxic medium supplemented with solvent (citrate buffer 1%) or 2-IB (10, 30, 50, 100 and 300 ng/mL) was added to the cells. Investigations of cell damage, metabolic activity, ROS, hydrogen peroxide, nitrite/nitrate production, erkl/2, akt and stat5 phosphorylation as well as cell stress protein expression were performed with cell culture media or cell protein (FIG. 1).
The release of LDH from cultured cells into the medium was quantified by using a colorimetric cytotoxicity detection kit (Roche, Mannheim, Germany). Samples were prepared based on the manufacturer's protocol. Briefly, culture media were collected 24 hours after hypoxia and stored at −20° C. For evaluation of total LDH, cells were lysed with 2% TRITON® X-100 (Carl Roth, Karlsruhe, Germany) for 15 minutes at 37° C. LDH activity of the samples was measured in 96-well plates at 490 nm using an ELISA reader (Tecan, Crailsheim, Austria) in combination with the Magellan software v1.1.

[1] = Pharmacokinetics in adults after out of hospital cardiac arrest (Example 5B); assay type: in vivo, human; set-up: Obs. AUCinf (based on weight): unit not given here
Method: Namely, a first cohort of eight patients received 2-IB in a dose of 0.055 mg/kg/dose every 4 hours iv, 6 times in total (part A; i.e., 0.33 mg/kg/day).
The eight adults that suffered an out of hospital cardiac arrest were treated with 2-IB as a 15-minute IV infusion every 4 hours for 6 administrations. Target temperature management was used to maintain body temperature of 36.0 (median).
Models were generated in order to determine the impact of dose adjustments and variability of AUC.
An exploratory covariate analysis was performed looking at body weight, age, eGFR, SeCre, and Core temperature.

[2] = Table 4, basic model, Max of 8 patients
[3] = Table 4, basic model, Mean of 8 patients
[4] = Table 4, basic model, Median of 8 patients
[5] = Table 4, basic model, Min of 8 patients
[6] = Table 4, basic model, OHCA patients, 0.055 mg/kg/dose iv every 4 hours x6, individual patient (ID 1-8), 0.055 mg/kg
[7] = Table 5, covariate model with Crea0, Max of 8 patients
[8] = Table 5, covariate model with Crea0, Mean of 8 patients
[9] = Table 5, covariate model with Crea0, Median of 8 patients
[10] = Table 5, covariate model with Crea0, Min of 8 patients
[11] = Table 5, covariate model with Crea0, OHCA patients, 0.055 mg/kg/dose iv every 4 hours x6, individual patient (ID 1-8), 0.055 mg/kg
[12] = Table 9, eGFR0 (eGFR at baseline) model, OHCA patients, 0.055 mg/kg/dose iv every 4 hours x6, individual patient (ID 1-8), 0.055 mg/kg
[13] = Table 9, eGFR0 model, Max of 8 patients
[14] = Table 9, eGFR0 model, Mean of 8 patients
[15] = Table 9, eGFR0 model, Median of 8 patients
[16] = Table 9, eGFR0 model, Min of 8 patients
[17] = exploratory covariate analysis, 8 OHCA patients

## N=C1N[C@H]2[C@H](CS[C@H]2CCCCC(=O)O)N1 [2-IB, 2-iminobiotin]
IMR-32 cells; 30 ng/ml 2-IB, hypoxia
  LDH/total LDH: 0.13±0.02
IMR-32 cells; 30 ng/ml 2-IB, normoxia
  LDH/total LDH: 0.11±0.03
IMR-32 cells; 50 ng/ml 2-IB, hypoxia
  LDH/total LDH: 0.14±0.04
IMR-32 cells; 50 ng/ml 2-IB, normoxia
  LDH/total LDH: 0.14±0.04
IMR-32 cells; 100 ng/ml 2-IB, hypoxia
  LDH/total LDH: 0.15±0.03
IMR-32 cells; 100 ng/ml 2-IB, normoxia
  LDH/total LDH: 0.10±0.02
IMR-32 cells; 300 ng/ml 2-IB, hypoxia
  LDH/total LDH: 0.20±0.06
IMR-32 cells; 300 ng/ml 2-IB, normoxia
  LDH/total LDH: 0.10±0.02
IMR-32 cells; 10-300 ng/ml tested, P<0.05 vs. control
  reduction of hypoxia-induced cell damage, most effective concentrations: 30 and 50 ng/ml 2-IB were the most effective concentrations
[1]; [2]
  AUC cumul.: 5613 ng·h/mL
  AUCinf: 1242 ng·h/mL
  CL: 22.3 L/h
  V: 33.6 L
  VSS: 43.5 L
  thalf: 6.3 h
[1]; [3]
  AUC cumul.: 3238 ng·h/mL
  AUCinf: 625 ng·h/mL
  CL: 11.7 L/h
  V: 14.9 L
  VSS: 24.9 L
  thalf: 2.5 h
[1]; [4]
  AUC cumul.: 2777 ng·h/mL
  AUCinf: 478 ng·h/mL
  CL: 9.5 L/h
  V: 12.7 L
  VSS: 22.7 L
  thalf: 1.6 h
[1]; [5]
  AUC cumul.: 1236 ng·h/mL
  AUCinf: 209 ng·h/mL
  CL: 4.9 L/h
  V: 5.0 L
  VSS: 14.9 L
  thalf: 1.0 h
[1]; [6]
  AUC cumul.: 5613 ng·h/mL and 4680 ng·h/mL and 3521 ng·h/mL and 5386 ng·h/mL and 1858 ng·h/mL and 2032 ng·h/mL and 1236 ng·h/mL and 1577 ng·h/mL
  AUCinf: 1152 ng·h/mL and 860 ng·h/mL and 612 ng·h/mL and 1242 ng·h/mL and 315 ng·h/mL and 343 ng·h/mL and 209 ng·h/mL and 265 ng·h/mL
  CL: 6.4 L/h and 5.8 L/h and 7.6 L/h and 4.9 L/h and 11.4 L/h and 18.3 L/h and 22.3 L/h and 16.7 L/h
  V: 24.3 L and 11.3 L and 7.3 L and 33.6 L and 5.0 L (2×) and 14.1 L and 19.0 L
  VSS: 34.3 L and 21.3 L and 17.3 L and 43.5 L and 15.0 L and 24.1 L and 28.9 L and 14.9 L
  thalf: 3.9 h and 2.8 h and 1.9 h and 6.3 h and 1.3 h and 1.2 h (2×) and 1.0 h
[1]; [7]
  AUC cumul.: 5934 ng·h/mL
  AUCinf: 1235 ng·h/mL
  CL: 17.9 L/h
  V: 34.1 L
  VSS: 43.4 L
  thalf: 5.4 h
[1]; [8]
  AUC cumul.: 3226 ng·h/mL
  AUCinf: 614 ng·h/mL
  CL: 11.0 L/h
  V: 15.4 L
  VSS: 24.7 L
  thalf: 2.3 h
[1]; [9]
  AUC cumul.: 2405 ng·h/mL
  AUCinf: 408 ng·h/mL
  CL: 10.2 L/h
  V: 13.2 L
  VSS: 22.5 L
  thalf: 1.5 h
[1]; [10]
  AUC cumul.: 1615 ng·h/mL
  AUCinf: 271 ng·h/mL
  CL: 5.6 L/h
  V: 4.7 L
  VSS: 14.0 L
  thalf: 1.0 h
[1]; [11]
  AUC cumul.: 5934 ng·h/mL and 4803 ng·h/mL and 2726 ng·h/mL and 4886 ng·h/mL and 2063 ng·h/mL and 2085 ng·h/mL and 1694 ng·h/mL and 1615 ng·h/mL
  AUCinf: 1235 ng·h/mL and 884 ng·h/mL and 464 ng·h/mL and 1063 ng·h/mL and 349 ng·h/mL and 352 ng·h/mL and 291 ng·h/mL and 271 ng·h/mL
  CL: 6.0 L/h and 5.6 L/h and 10.0 L/h and 5.7 L/h and 10.3 L/h and 17.9 L/h and 16.0 L/h and 16.3 L/h
  V: 24.5 L and 11.8 L and 7.2 L and 34.1 L and 4.7 L and 14.5 L and 21.3 L and 5.1 L
  VSS: 33.8 L and 21.1 L and 16.5 L and 43.4 L and 14.0 L and 23.8 L and 30.6 L and 14.4 L
  thalf: 4.1 h and 2.8 h and 1.4 h and 5.4 h and 1.3 h and 1.2 h and 1.5 h and 1.0 h
[1]; Table 8, covariate model with Crea0, individual patient (ID 1-8)
  Obs. AUCinf (based on weight): 291 and 271 and 1235 and 884 and 464 and 1063 and 349 and 352
[1]; [12]
  AUC: 5905 ng·h/mL and 4813 ng·h/mL and 2712 ng·h/mL and 4896 ng·h/mL and 2060 ng·h/mL and 2061 ng·h/mL and 1705 ng·h/mL and 1636 ng·h/mL
  AUCinf: 1227 ng·h/mL and 886 ng·h/mL and 462 ng·h/mL and 1067 ng·h/mL and 349 ng·h/mL and 348 ng·h/mL and 292 ng·h/mL and 274 ng·h/mL
  CL: 6.0 L/h and 5.6 L/h and 10.1 L/h and 5.7 L/h and 10.3 L/h and 18.1 L/h and 15.9 L/h and 16.1 L/h
  V: 24.5 L and 11.8 L and 7.3 L and 34.2 L and 4.7 L and 14.8 L and 21.1 L and 5.0 L
  VSS: 33.8 L and 21.1 L and 16.5 L and 43.5 L and 14.0 L and 24.1 L and 30.4 L and 14.3 L
  thalf: 4.1 h and 2.8 h and 1.4 h and 5.4 h and 1.3 h and 1.2 h and 1.5 h and 1.0 h
[1]; [13]
  AUC: 5905 ng·h/mL
  AUCinf: 1227 ng·h/mL
  CL: 18.1 L/h
  V: 34.2 L
  VSS: 43.5 L
  thalf: 5.4 h
[1]; [14]
  AUC: 3224 ng·h/mL
  AUCinf: 613 ng·h/mL
  CL: 11.0 L/h
  V: 15.4 L
  VSS: 24.7 L
  thalf: 2.3 h
[1]; [15]
  AUC: 2387 ng·h/mL
  AUCinf: 405 ng·h/mL
  CL: 10.2 L/h
  V: 13.3 L
  VSS: 22.6 L
  thalf: 1.5 h
[1]; [16]
  AUC: 1636 ng·h/mL
  AUCinf: 274 ng·h/mL
  CL: 5.6 L/h
  V: 4.7 L
  VSS: 14.0 L
  thalf: 1.0 h
[1]; Table 10, covariate model with eGFR, individual patient (ID 1-8)
  Obs. AUCinf (based on weight): 292 and 274 and 1227 and 886 and 462 and 1067 and 349 and 348
[1]; Table 10, Max of 8 patients
  Obs. AUCinf (based on weight): 1227
[1]; Table 10, Mean of 8 patients
  Obs. AUCinf (based on weight): 613
[1]; Table 10, Median of 8 patients
  Obs. AUCinf (based on weight): 405
[1]; Table 10, Min of 8 patients
  Obs. AUCinf (based on weight): 274
[1]; [17]
  influence of body weight on clearance: not influenced by body weight
  influence of body weight on volume: influenced by body weight
[1]; renal function as Serum Creatinine or eGFR before treatment, exploratory covariate analysis
  influence of renal function on clearance: appears to be influenced be renal function
